Results published in patent US12187722B2, “Small molecule inhibitors of TEAD transcription factors” (The General Hospital Corporation, priority 2019, dated 2025).

Molecular target: TEAD2 (Homo sapiens (Human), UniProt Q15562)
Assay: In vitro palmitoylation (TEAD2 autopalmitoylation, streptavidin blot)
Assay type: biochemical
Details: Table 2, result printed in words
Method: Recombinant GST-TEAD2 or His6TEAD2 (500 ng) protein was pre-incubated with the compounds at indicated concentrations for 15 min. and then incubated with 1 μM of alkyne palmitoyl-5 CoA (Cayman Chemical) for 30 min or 50 mM MES, pH 6.4, followed by Click reaction with biotin-azide as previously described (Zheng, B. et al., J. Am. Chem. Soc., 2013, 135, 7082-7085). Click reaction was performed with 100 μM biotin-azide, 1 mM tris(2-carboxyethyl) phosphine hydrochloride (TCEP), 100 μM tris[(1-benzyl-1H-1,2,3-triazol-4-yl) methyl] amine (TBTA) and 1 mM CuSO4 for 1 h at RT.
The reactions were terminated by the addition of 12 μL of 6×SDS-sample loading buffer (50 mM Tris-HCl, pH 6.8, 6% SDS, 48% Glycerol, 0.03% Bromophenol Blue, 30 mM EDTA, 9% MeSH). Samples were analysed by SDS-PAGE and Western blot was performed by probing with streptavidin HRP and histidine HRP antibodies independently. Bands intensity obtained from streptavidin blot were quantified using BIORAD, Gel doc system and the percentage of inhibition of Tead2 auto palmitoylation is determined by comparing to the DMSO control treated samples.
These compounds were tested for activity in inhibiting TEAD2 palmitoylation in the assay described above.

TEAD2, sequence (Q15562 whole entry): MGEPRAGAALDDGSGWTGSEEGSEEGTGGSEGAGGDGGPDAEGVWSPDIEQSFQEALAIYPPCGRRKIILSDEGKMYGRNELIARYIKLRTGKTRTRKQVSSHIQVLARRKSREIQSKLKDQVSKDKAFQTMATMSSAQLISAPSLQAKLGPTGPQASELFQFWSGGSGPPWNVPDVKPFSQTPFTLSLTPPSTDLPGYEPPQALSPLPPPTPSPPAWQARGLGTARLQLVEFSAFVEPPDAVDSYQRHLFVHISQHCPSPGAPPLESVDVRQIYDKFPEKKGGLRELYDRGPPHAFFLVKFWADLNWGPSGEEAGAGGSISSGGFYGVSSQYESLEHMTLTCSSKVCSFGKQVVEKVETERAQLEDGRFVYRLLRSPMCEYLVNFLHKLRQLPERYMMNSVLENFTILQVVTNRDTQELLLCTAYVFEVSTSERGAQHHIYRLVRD

SMILES	inhibition of TEAD2 palmitoylation (YES/NO)
O=C(O)c1ccccc1Nc1ccc(-c2cnc(-c3ccccc3)s2)cc1 [Compound 68]	YES

Same assay, conditions: compound at 10 μM; Table 2

SMILES	inhibition at 10 µM	% of inhibition of TEAD2 palmitoylation at 10 μM
CN(c1cnn(Cc2ccc(C34CC5CC(CC(C5)C3)C4)cc2Cl)c1)c1ncccc1C(=O)O [Compound 133]	93%	–
O=C(O)C1CCCC1Nc1ccc(Nc2ccc(C34CC5CC(CC(C5)C3)C4)cc2Cl)cc1 (centres unmarked) [Compound 40]	–	43%
O=C(Cc1ccc(Nc2ccc(C34CC5CC(CC(C5)C3)C4)cc2)cc1)Nc1ccccc1C(=O)O [Compound 213]	90%	–
NC(Cc1ccc(Nc2ccc(C34CC5CC(CC(C5)C3)C4)cc2Cl)cc1)C(=O)O (centres unmarked) [Compound 95]	97%	–
O=C(Nc1ccccc1C(=O)O)c1ccc(Oc2ccc(C34CC5CC(CC(C5)C3)C4)cc2)cc1 [Compound 237]	93%	–
CCOC(=O)/C=C/c1ccccc1Nc1ccc(Nc2ccc(C34CC5CC(CC(C5)C3)C4)cc2)cc1 [Compound 14]	0%	–
CC(C)(C)OC(=O)NC(Cc1ccc(Nc2ccc(C34CC5CC(CC(C5)C3)C4)cc2Cl)cc1)C(=O)O (centres unmarked) [Compound 94]	91%	–
O=C(O)C1CCCCC1Nc1ccc(C23CC4CC(CC(C4)C2)C3)cc1 (centres unmarked) [Compound 66]	25%	–
O=C(NC12CC3CC(CC(C3)C1)C2)c1ccc(Nc2ccc(Nc3ccccc3C(=O)O)cc2)cc1 [Compound 98]	89%	–
Clc1cc(C23CC4CC(CC(C4)C2)C3)ccc1Nc1ccc(Cn2ccnc2)cc1 [Compound 105]	96%	–
O=C(O)c1cncc(Nc2cc(C(F)(F)F)cc3[nH]c4ccc(C56CC7CC(CC(C7)C5)C6)cc4c23)c1 [Compound 151]	101%	–
O=C(O)c1cc(Nc2ccc(Nc3ccc(C45CC6CC(CC(C6)C4)C5)cc3Cl)cc2)ccn1 [Compound 117]	9%	–
CN(c1ccc(C23CC4CC(CC(C4)C2)C3)cc1)c1ccc(N(C)c2ccccc2C(=O)O)cn1 [Compound 160]	84%	–
O=C(O)c1cnccc1Nc1ccc(Nc2ccc(C34CC5CC(CC(C5)C3)C4)cc2Cl)cc1 [Compound 75]	63%	–
O=C(O)C1=C(C(=O)Nc2ccc(Nc3ccc(C45CC6CC(CC(C6)C4)C5)cc3Cl)cc2)CCC1 [compound 290]	69%	–
O=C(O)c1cccnc1N1CCN(Cc2ccc(C34CC5CC(CC(C5)C3)C4)cc2Cl)CC1 [Compound 106]	0%	–
CN(c1ccc(C23CC4CC(CC(C4)C2)C3)cc1)c1cccc(N(C)c2ncccc2C(=O)O)c1 [Compound 140]	99%	–
Cc1cc(C23CC4CC(CC(C4)C2)C3)cc(C)c1Nc1ccc(Nc2ccccc2C(=O)O)cc1 [Compound 79]	45%	–
O=C1CCc2ccccc2N1c1ccc(Nc2ccc(C34CC5CC(CC(C5)C3)C4)cc2)cc1 [Compound 15]	12%	–
CCN(c1ccc(N(CC)c2ccccc2C(=O)O)cc1)c1ccc(C23CC4CC(CC(C4)C2)C3)cc1 [Compound 163]	85%	–
O=C(O)Cn1ncc2ccc(Nc3ccc(C45CC6CC(CC(C6)C4)C5)cc3Cl)cc21 [Compound 118]	78%	–
O=C(Nc1ccccc1C(=O)O)c1ccc(Nc2ccc(C34CC5CC(CC(C5)C3)C4)cc2Br)cc1 [Compound 228]	89%	–

SMILES	inhibition at 10 µM	% of inhibition of TEAD2 palmitoylation at 10 μM
O=C(O)c1cncc(Nc2ccc(Nc3ccc(C45CC6CC(CC(C6)C4)C5)cc3Cl)cc2)n1 [Compound 115]	67%	–
O=C(O)c1ccccc1Nc1ccc(Nc2ccc(OCC34CC5CC(CC(C5)C3)C4)cc2)cc1 [Compound 205]	74%	–
O=C(Nc1ccc(C23CC4CC(CC(C4)C2)C3)cc1Cl)c1cccc(Nc2ncccc2C(=O)O)c1 [Compound 241]	100%	–
CC12CC3CC(C)(C1)CC(c1ccc(NS(=O)(=O)c4ccc(Nc5ccccc5C(=O)O)cc4)c(Cl)c1)(C3)C2 [Compound 264]	0%	–
O=C(Nc1ccc(Nc2ccc(C34CC5CC(CC(C5)C3)C4)cc2Cl)cc1)[C@H]1CCC[C@H]1C(=O)O (stereo in doubt) [compound 288]	53%	–
CCCCN(c1ccccc1)c1ccc(Nc2ccc(Nc3ncccc3C(=O)O)cc2)c(Cl)c1 [Compound 259]	83%	–
O=S1(=O)N=C(Nc2ccc(Nc3ccc(C45CC6CC(CC(C6)C4)C5)cc3Cl)cc2)c2ccccc21 [Compound 18]	35%	–
O=C(O)c1ccncc1Nc1ccc(Nc2ccc(C34CC5CC(CC(C5)C3)C4)cc2Cl)cc1 [Compound 83]	65%	–
CN(c1ccc(Nc2ncccc2C(=O)OCCO)cc1)c1ccc(C23CC4CC(CC(C4)C2)C3)cc1Cl [Compound 12]	85%	–
O=C(O)c1cccnc1Nc1cccc(Nc2cccc(C34CC5CC(CC(C5)C3)C4)c2)c1 [Compound 111]	80%	–
CN(c1ccc(Nc2ccc(C34CC5CC(CC(C5)C3)C4)cc2)cc1)c1ncccc1C(=O)O [Compound 138]	24%	–
O=C(O)c1ccccc1Nc1cnc(Oc2ccc(C34CC5CC(CC(C5)C3)C4)cc2Cl)cn1 [compound 440]	75%	–
CCN(c1ccc(N(C)c2ccc(C34CC5CC(CC(C5)C3)C4)cc2)cc1)c1ccccc1C(=O)O [Compound 171]	75%	–
O=C(O)c1cccnc1Cc1ccc(Nc2ccc(C34CC5CC(CC(C5)C3)C4)cc2Cl)cc1 [Compound 122]	95%	–
O=C(O)c1cccc(Nc2cccc(Nc3ccc(C45CC6CC(CC(C6)C4)C5)cc3Cl)c2)n1 [Compound 150]	100%	–
Cc1cc(Nc2ccc(C34CC5CC(CC(C5)C3)C4)cc2)cc(Nc2ncccc2C(=O)O)c1 [Compound 32]	60%	–
O=C(O)/C=C/c1ccccc1Nc1ccc(Nc2ccc(C34CC5CC(CC(C5)C3)C4)cc2)cc1 [Compound 245]	87%	–
O=C(Cc1ccc(Nc2ncccc2C(=O)O)cc1)Nc1ccc(C23CC4CC(CC(C4)C2)C3)cc1 [Compound 184]	71%	–
CC(C)c1ccccc1-c1ccc(Nc2ccc(Nc3cccc(C(=O)O)n3)cc2)cc1 [Compound 209]	54%	–
CN(c1ccc(N(C)c2ccccc2C(=O)O)cc1)c1cccc(C(=O)NC23CC4CC(CC(C4)C2)C3)c1 [Compound 233]	9%	–
O=C(O)[C@H]1CCCN1C(=O)Nc1ccc(Nc2ccc(C34CC5CC(CC(C5)C3)C4)cc2Cl)cc1 [Compound 52]	79%	–
CC1(C)OC(C(=O)O)C(C(=O)Nc2ccc(Nc3ccc(C45CC6CC(CC(C6)C4)C5)cc3Cl)cc2)O1 (centres unmarked) [Compound 102]	77%	–

Same assay, conditions: compound at 10 μM; Table 2; listed as 293

SMILES	% of inhibition of TEAD2 palmitoylation at 10 μM
O=C(O)c1ccccc1C(=O)Nc1ccc(Nc2ccc(C34CC5CC(CC(C5)C3)C4)cc2Cl)cc1 [compound 286, 2-((4-(4-((3r,5r,7r)-adamantan-1-yl)-2-chlorophenyl)amino)phenyl)carbamoyl) benzoic acid]	86%

Same assay, conditions: compound at 10 μM; Table 3

SMILES	inhibition at 10 µM
COc1ccc(Nc2ccc(N(C)c3ccc(C4CCCCC4)cc3)nc2)nc1C(=O)O [CP-654]	36%
COCCOc1ccc(Nc2ccc(N(C)c3ccc(C4CCCCC4)cc3)cc2)c(C(=O)O)c1 [CP-536]	84%
COCCC(=O)Nc1ccc(C(=O)O)c(Nc2ccc(N(C)c3ccc(C45CC6CC(CC(C6)C4)C5)cc3)cc2)c1 [CP-473]	50%
Cc1cc(N(C)c2ccc(C3CCCCC3)cc2)ccc1Nc1ccc(N2CCOCC2)cc1C(=O)O [CP-621]	47%
Cc1cc(N(C)c2ccc(C3CCCCC3)cc2)ccc1Nc1ccc(OC2CCCCC2)cc1C(=O)O [CP-634]	32%
CNC(=O)c1ccc(Nc2ccc(N(C)c3ccc(C4CCCCC4)cc3)cc2C)c(C(=O)O)c1 [CP-632]	73%
COc1ccc(Nc2ccc(N(C)c3ccc(C(F)(F)F)cc3)cc2)c(C#N)c1 [CP-608]	43%
CN(c1ccc(Nc2ncccc2C(=O)O)cc1)c1ccc(C(F)(F)F)cc1 [CP-541]	80%
O=C(O)c1ccccc1Nc1cnc(Oc2ccc(C3CCCCC3)cc2Cl)cn1 [CP-559]	79%
Cc1cc(Nc2ccc(C3CCCCC3)cc2)ccc1C(=O)Nc1cccc(C(=O)O)c1 [CP-649]	99%
Cc1cc(Oc2ccc(C34CC5CC(C)(CC(C)(C5)C3)C4)cc2Cl)ccc1Nc1ccccc1C(=O)O [CP-561]	90%
Cc1cc(N(C)c2ccc(C3CCCCC3)cc2)ccc1Nc1ccc(C(=O)N2CC(C(N)=O)C2)cc1C(=O)O [CP-679]	81%
CCCCOc1ccc(Nc2ccc(N(C)c3ccc(C4CCCCC4)cc3)cc2C)c(C(=O)O)c1 [CP-628]	40%
COc1ccc(Nc2cc(Nc3ccc(C4CCCCC4)cc3Cl)cc(C(F)(F)F)c2)nc1C(=O)O [CP-675]	83%
COc1ccc(Nc2ccc(N(C)c3ccc(Cl)cc3)cc2)c(C(=O)O)c1 [CP-535]	54%
O=C(O)c1ccccc1Nc1cnc(Oc2ccc(C34CC5CC(CC(C5)C3)C4)cc2Cl)cn1 [CP-540]	75%
COc1ccc(Nc2ccc(N(C)c3ccc(C4CCN(C)CC4)cc3)cc2)c(C(=O)O)c1 [CP-582]	0%
Cc1cc(N(C)c2ccc(C3CCCCC3)cc2)ccc1Nc1ccc(N2CC3(COC3)C2)cc1C(=O)O [CP-627]	51%
O=C(O)c1cccnc1Nc1cccc(Nc2ccc(C3CCCCC3)cc2Cl)c1 [CP-677]	96%
